How the values were obtained:
S. aureus ATCC 29213 [1] = test: MIC assay; assay type: cell-based, Staphylococcus aureus; conditions: Mueller-Hinton broth pH 7.0
From the text: (§1) (a) staphylococci. The Staphylococcus aureus strain used was ATCC 29213. S. aureus and other staphylococci are common causes of a wide range of skin, skin structure and wound infections; S. aureus is also known to exacerbate eczema. The ATCC 29213 strain is known to be susceptible to beta-lactam antibiotics such as methicillin. The Staphylococcus epidermidis strain used was NCTC 11047. Staph. epidermidis forms part of the resident flora of skin and is an opportunistic pathogen which can cause biofilms to grow for instance on plastic surgical implants such as catheters. Unless otherwise stated, the staphylococci were cultured and maintained on Mueller-Hinton Medium (agar and broth) at pH 7.2; cultures were incubated aerobically at 37° C. for 19-20 hours, at pH 7 (±0.2). (b) C. striatum NCTC 764. Corynebacterium striatum is closely related to organisms (aerobic diphtheroids of the genus Corynebacterium) that cause body odour. It was cultured and maintained on Mueller-Hinton medium (agar and broth). All cultures were incubated aerobically at 37° C. for 72 hours, at pH 7 (±0.2). (c) streptococci. The strains tested were S. mutans ATCC 25175 and S. pyogenes ATCC 12344. S. mutans is a Gram-positive, microaerophilic bacterium which plays a significant role in dental caries and in infective endocarditis. […]
(§2) This is a standard international method for quantitatively assessing the antimicrobial activity of a compound in a liquid medium. […]
(§3) The wells were inoculated with a liquid suspension of freshly grown micro-organism and incubated under the conditions described above. […] The MIC value was recorded as the lowest concentration of test compound required to inhibit microbial growth, ie the lowest concentration for which the liquid in the well remained clear. […]
(§4) Example 8 was repeated (except for the supplemented DDA assays), using S. aureus ATCC 29213 as the test organism. […] In the DDA assays, 200 μg is of each compound was loaded onto each disc: the culture medium was Mueller-Hinton agar at pH 7.0, and results were recorded after overnight incubation at 37° C. in air. […]

P. acnes NCTC 737 [2] = test: Minimum inhibitory concentration (MIC) assay, broth microtitre; assay type: cell-based, Propionibacterium acnes; conditions: compound in DMSO; triplicate
Method: (§5) The first test micro-organism used was Propionibacterium acnes NCTC 737. This is a propionibacterial strain and is the type strain of the […]; it is fully susceptible to antibiotics.
(§6) The propionibacteria were cultured and maintained on Wilkins-Chalgren Anaerobe Medium (agar and broth) at pH 6.0; all cultures were incubated anaerobically at 37° C. for 72 hours.
This is a standard international method for quantitatively assessing the antimicrobial activity of a compound in a liquid medium. The method used a sterile 96-well microtitre plate, capable of holding about 200 μl of liquid per well. The wells contained liquid culture medium and ranges of decreasing concentrations of the relevant test compound in doubling dilutions (eg 1000, 500, 250, 125 . . . μg/ml, etc. down to 0.49 μg/ml). The culture medium was as described above.
The wells were inoculated with a liquid suspension of freshly grown micro-organism and incubated under the conditions described above. After incubation, the microtitre plate was examined visually (with the aid of a light box) for cloudiness in each well, which would indicate microbial growth. The MIC value was recorded as the lowest concentration of test compound required to inhibit microbial growth, ie the lowest concentration for which the liquid in the well remained clear.
The assays included both negative (culture medium with no micro-organisms) and positive (culture medium plus diluting solvent plus micro-organism) controls.
(§7) DDA assays, as described above, were carried out using as the test formulation the gel prepared in Example 2B above. Also tested was the Example 2B gel minus the Klucel™ thickener, which was also subjected to MIC and MBC assays. For the DDAs, which were performed in triplicate, 100 μl of the relevant formulation was loaded onto each disc, and zones of inhibition were recorded after 3 days' anaerobic incubation at 37° C. The MIC and MBC tests were performed in duplicate and the results recorded after 3 days and 7 days respectively, post-subculture onto drug-free medium. […]

P. acnes NCTC 737 [3] = test: Disc diffusion assay (DDA); assay type: cell-based, Propionibacterium acnes; conditions: 200 μg compound per disc; DMSO
Method: as §5, §6
This is an internationally recognised standard method for qualitatively assessing the antimicrobial activity of a compound.
A sterile paper disc was impregnated with a sample of the test compound in a suitable solvent and 30 minutes allowed for the solvents to evaporate (where possible). The disc was then placed on an agar plate onto which the test micro-organism had been inoculated. The plate was then incubated under the conditions described above, following which it was examined visually for signs of microbial growth. If the test compound had antimicrobial activity, a circular zone of no growth would be obtained around the disc. The diameter of this zone of “inhibition” was measured using a ProtoCOL™ automated zone sizer (Synbiosis, Cambridge, UK). In general, a greater diameter and/or area of the zone of inhibition indicates a greater antimicrobial activity in the relevant test compound, although other factors such as test compound mobility through the agar gel may also influence the result.
as §7

S. aureus ATCC 29213 [4] = test: Disc diffusion assay (DDA); assay type: cell-based, Staphylococcus aureus; conditions: 200 μg per disc; Mueller-Hinton agar pH 7.0; overnight at 37° C. in air
From the text: as §1, with “endocarditis. Streptococcus pyogenes is associated with skin, soft tissue, burn and wound infections.” for “endocarditis.”
(§8) A sterile paper disc was impregnated with a sample of the test compound in a suitable solvent and 30 minutes allowed for the solvents to evaporate (where possible). […] The diameter of this zone of “inhibition” was measured using a ProtoCOL™ automated zone sizer (Synbiosis, Cambridge, UK). […]
as §4

S. aureus ATCC 29213 [5] = test: MBC assay; assay type: cell-based, Staphylococcus aureus; conditions: Mueller-Hinton broth pH 7.0
From the text: as §1, with “endocarditis. Streptococcus pyogenes is associated with skin, soft tissue, burn and wound infections. S. mutans was cultured and maintained on Wilkins-Chalgren Anaerobe medium+1 g/L glucose (agar and broth); it was incubated in air at 37° C. for 48 hours, at pH 7 (±0.2) with 5% carbon dioxide. S. pyogenes was cultured and maintained on Mueller-Hinton medium (broth and agar) and was incubated under the same conditions as S. mutans.” for “endocarditis.”
as §4

C. striatum NCTC 764 [6] = test: MIC assay; assay type: cell-based, Corynebacterium striatum; conditions: triplicate
From the text: as §1, with “endocarditis. Streptococcus pyogenes is associated with skin, soft tissue, burn and wound infections. S. mutans was cultured and maintained on Wilkins-Chalgren Anaerobe medium+1 g/L glucose (agar and broth); it was incubated in air at 37° C. for 48 hours, at pH 7 (±0.2) with 5% carbon dioxide.” for “endocarditis.”
as §2, §3

P. acnes NCTC 737 [7] = test: Minimum bactericidal concentration (MBC) assay; assay type: cell-based, Propionibacterium acnes; conditions: compound in DMSO; triplicate
Method: as §5, §6
(§9) This assay, normally carried out after an MIC assay, determines the minimum concentration of a compound that is lethal to the micro-organism being tested.
These samples were then individually sub-cultured on antibiotic-free agar medium, under the incubation conditions described above. Following incubation they were examined visually for microbial growth.
DDA assays, as described above, were carried out using as the test formulation the gel prepared in Example 2B above. Also tested was the Example 2B gel minus the Klucel™ thickener, which was also subjected to MIC and MBC assays. For the DDAs, which were performed in triplicate, 100 μl of the relevant formulation was loaded onto each disc, and zones of inhibition were recorded after 3 days' anaerobic incubation at 37° C. The MIC and MBC tests were performed in duplicate and the results recorded after 3 days and 7 days respectively, post-subculture onto drug-free medium.
The compounds copper (II) usnate (Just for Today Ltd), sodium usnate (Yick-Vic Chemicals) and usnic acid (Sigma-Aldrich) were tested against P. acnes NCTC 737, using MIC, MBC and DDA assays as described above. For copper usnate and usnic acid, supplemented DDA assays were also carried out. DMSO was used as the solvent for all three test compounds. For the DDAs, 200 μg of the relevant test compound was loaded onto each disc. The MIC and MBC assays were conducted in triplicate, as were the DDAs for copper usnate.

C. striatum NCTC 764 [8] = test: Disc diffusion assay (DDA); assay type: cell-based, Corynebacterium striatum; conditions: 200 μg per disc; single plates
From the text: as §1, with “streptococci.” for “streptococci. The strains tested were S. mutans ATCC 25175 and S. pyogenes ATCC 12344. S. mutans is a Gram-positive, microaerophilic bacterium which plays a significant role in dental caries and in infective endocarditis.”
as §8

C. striatum NCTC 764 [9] = test: MBC assay; assay type: cell-based, Corynebacterium striatum; conditions: triplicate
From the text: (a) staphylococci. The Staphylococcus aureus strain used was ATCC 29213. S. aureus and other staphylococci are common causes of a wide range of skin, skin structure and wound infections; S. aureus is also known to exacerbate eczema. The ATCC 29213 strain is known to be susceptible to beta-lactam antibiotics such as methicillin. The Staphylococcus epidermidis strain used was NCTC 11047. Staph. epidermidis forms part of the resident flora of skin and is an opportunistic pathogen which can cause biofilms to grow for instance on plastic surgical implants such as catheters. Unless otherwise stated, the staphylococci were cultured and maintained on Mueller-Hinton Medium (agar and broth) at pH 7.2; cultures were incubated aerobically at 37° C. for 19-20 hours, at pH 7 (±0.2). (b) C. striatum NCTC 764. Corynebacterium striatum is closely related to organisms (aerobic diphtheroids of the genus Corynebacterium) that cause body odour. It was cultured and maintained on Mueller-Hinton medium (agar and broth). All cultures were incubated aerobically at 37° C. for 72 hours, at pH 7 (±0.2). (c) streptococci. The strains tested were S. mutans ATCC 25175 and S. pyogenes ATCC 12344. S. mutans is a Gram-positive, microaerophilic bacterium which plays a significant role in dental caries and in infective endocarditis. Streptococcus pyogenes is associated with skin, soft tissue, burn and wound infections. S. mutans was cultured and maintained on Wilkins-Chalgren Anaerobe medium+1 g/L glucose (agar and broth); it was incubated in air at 37° C. for 48 hours, at pH 7 (±0.2) with 5% carbon dioxide. S. pyogenes was cultured and maintained on Mueller-Hinton medium (broth and agar) and was incubated under the same conditions as S. mutans.
as §9
These samples were then individually sub-cultured on antibiotic-free agar medium, under the incubation conditions described above. Following incubation they were examined visually for microbial growth. […]

With `CC(=O)C1=C([O-])C=C2Oc3c(C(C)=O)c(O)c(C)c(O)c3[C@]2(C)C1=O.[Na+]` [Sodium usnate, sodium usnate] the MIC (S. aureus ATCC 29213 [1]) was 7.8 µg/mL, the MIC (P. acnes NCTC 737 [2]) was 0.49 µg/mL and the “DDA zone diameter, unsupplemented medium” value (P. acnes NCTC 737 [3]) was 57.9 mm. The DDA zone diameter (S. aureus ATCC 29213 [4]) was 15.0 mm, the MBC (S. aureus ATCC 29213 [5]) was 250 µg/mL and the MIC (C. striatum NCTC 764 [6]) was 3.9 µg/mL. The MBC (P. acnes NCTC 737 [7]) was 0.98 µg/mL, the DDA zone diameter (C. striatum NCTC 764 [8]) was 20.0 mm and the MBC (C. striatum NCTC 764 [9]) was 125 µg/mL.

From patent publication US20120270935A1, “FORMULATIONS” (priority 2009, published 2012)
